According to publication PMC9851200, “Multiparameter phenotypic screening for endogenous TFEB and TFE3 translocation identifies novel chemical series modulating lysosome function” (Autophagy, 2022):

Key:
Type in all cases: binding
[1] = molecular target: T1, kinases (KINOMEscan panel) (Homo sapiens, UniProt O76039); details: kinase CDKL5; NEW KINOMEscan
T1 sequence (O76039 1-960): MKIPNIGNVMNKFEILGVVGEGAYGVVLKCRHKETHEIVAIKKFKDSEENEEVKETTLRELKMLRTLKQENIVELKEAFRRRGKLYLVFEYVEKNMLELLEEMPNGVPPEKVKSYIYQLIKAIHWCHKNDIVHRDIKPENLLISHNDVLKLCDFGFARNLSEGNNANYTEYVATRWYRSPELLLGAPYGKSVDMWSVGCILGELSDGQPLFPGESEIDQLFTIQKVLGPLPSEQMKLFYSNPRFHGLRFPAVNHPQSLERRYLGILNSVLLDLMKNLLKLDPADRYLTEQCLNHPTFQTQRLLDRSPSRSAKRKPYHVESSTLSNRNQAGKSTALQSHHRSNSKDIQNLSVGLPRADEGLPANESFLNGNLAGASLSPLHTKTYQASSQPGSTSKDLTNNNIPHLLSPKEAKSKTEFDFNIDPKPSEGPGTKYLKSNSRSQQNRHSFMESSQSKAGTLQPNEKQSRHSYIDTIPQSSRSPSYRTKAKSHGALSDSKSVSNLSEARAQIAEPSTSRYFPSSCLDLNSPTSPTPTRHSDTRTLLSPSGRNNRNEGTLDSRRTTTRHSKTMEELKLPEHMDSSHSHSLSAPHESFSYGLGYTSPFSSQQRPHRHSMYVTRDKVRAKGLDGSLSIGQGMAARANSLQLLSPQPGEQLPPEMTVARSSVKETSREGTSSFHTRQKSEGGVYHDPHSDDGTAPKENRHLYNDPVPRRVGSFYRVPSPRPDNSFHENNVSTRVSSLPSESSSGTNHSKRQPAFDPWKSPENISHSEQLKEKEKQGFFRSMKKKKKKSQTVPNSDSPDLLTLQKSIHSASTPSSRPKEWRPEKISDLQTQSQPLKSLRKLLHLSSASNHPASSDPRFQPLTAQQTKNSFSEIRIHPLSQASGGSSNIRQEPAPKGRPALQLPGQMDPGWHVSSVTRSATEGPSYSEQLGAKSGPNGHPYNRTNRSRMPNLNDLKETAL

[2] = molecular target: kinases (KINOMEscan panel) (Homo sapiens, UniProt Q9UBF8); details: kinase PI4KB; NEW KINOMEscan
[3] = molecular target: kinases (KINOMEscan panel) (Homo sapiens, UniProt P53778)
[4] = molecular target: kinases (KINOMEscan panel) (Homo sapiens, UniProt Q9BYP7); details: NEW KINOMEscan
[5] = molecular target: kinases (KINOMEscan panel) (Homo sapiens, UniProt P10721, V559D/V654A); details: kinase KIT(V559D,V654A); NEW KINOMEscan
[6] = molecular target: T2, kinases (KINOMEscan panel) (Homo sapiens, UniProt O00444); details: kinase PLK4; NEW KINOMEscan
T2 sequence (O00444 1-970): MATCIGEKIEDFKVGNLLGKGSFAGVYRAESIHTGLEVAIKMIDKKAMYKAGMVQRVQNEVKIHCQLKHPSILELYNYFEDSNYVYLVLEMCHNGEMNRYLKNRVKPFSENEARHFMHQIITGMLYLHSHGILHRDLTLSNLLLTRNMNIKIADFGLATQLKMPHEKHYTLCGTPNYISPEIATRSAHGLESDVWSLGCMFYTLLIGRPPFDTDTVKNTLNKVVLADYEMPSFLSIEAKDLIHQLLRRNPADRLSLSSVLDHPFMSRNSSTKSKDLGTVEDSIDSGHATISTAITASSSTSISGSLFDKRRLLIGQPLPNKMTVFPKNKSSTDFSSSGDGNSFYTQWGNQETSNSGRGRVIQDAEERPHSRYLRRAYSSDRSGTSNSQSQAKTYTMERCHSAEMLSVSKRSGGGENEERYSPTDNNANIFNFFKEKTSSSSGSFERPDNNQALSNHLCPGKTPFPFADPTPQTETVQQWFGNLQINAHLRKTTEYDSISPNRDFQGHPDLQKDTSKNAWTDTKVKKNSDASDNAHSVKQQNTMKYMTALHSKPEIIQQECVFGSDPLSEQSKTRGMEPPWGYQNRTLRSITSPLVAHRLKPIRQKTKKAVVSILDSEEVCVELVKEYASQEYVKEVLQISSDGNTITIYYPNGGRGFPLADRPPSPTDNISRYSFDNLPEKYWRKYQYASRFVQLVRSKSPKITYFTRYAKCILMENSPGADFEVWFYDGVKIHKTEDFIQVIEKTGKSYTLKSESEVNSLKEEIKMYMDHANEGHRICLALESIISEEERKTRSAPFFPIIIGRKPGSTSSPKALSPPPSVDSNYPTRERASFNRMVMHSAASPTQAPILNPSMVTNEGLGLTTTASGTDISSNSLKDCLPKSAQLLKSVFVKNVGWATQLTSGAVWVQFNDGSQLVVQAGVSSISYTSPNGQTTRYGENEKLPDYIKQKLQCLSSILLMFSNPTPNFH

Chain of kinases (KINOMEscan panel) (Homo sapiens, UniProt P53778) (P53778 whole entry): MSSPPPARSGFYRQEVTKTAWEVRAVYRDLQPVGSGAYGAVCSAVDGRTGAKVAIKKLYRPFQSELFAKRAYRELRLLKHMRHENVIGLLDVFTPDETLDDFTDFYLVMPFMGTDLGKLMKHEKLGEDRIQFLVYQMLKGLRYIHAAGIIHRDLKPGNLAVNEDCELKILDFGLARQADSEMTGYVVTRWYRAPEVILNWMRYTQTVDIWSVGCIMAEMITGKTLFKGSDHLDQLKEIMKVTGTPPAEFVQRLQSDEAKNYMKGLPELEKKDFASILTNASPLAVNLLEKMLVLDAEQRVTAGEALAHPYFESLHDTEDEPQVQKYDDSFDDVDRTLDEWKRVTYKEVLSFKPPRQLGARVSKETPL
Chain of kinases (KINOMEscan panel) (Homo sapiens, UniProt Q9BYP7) (Q9BYP7 whole entry): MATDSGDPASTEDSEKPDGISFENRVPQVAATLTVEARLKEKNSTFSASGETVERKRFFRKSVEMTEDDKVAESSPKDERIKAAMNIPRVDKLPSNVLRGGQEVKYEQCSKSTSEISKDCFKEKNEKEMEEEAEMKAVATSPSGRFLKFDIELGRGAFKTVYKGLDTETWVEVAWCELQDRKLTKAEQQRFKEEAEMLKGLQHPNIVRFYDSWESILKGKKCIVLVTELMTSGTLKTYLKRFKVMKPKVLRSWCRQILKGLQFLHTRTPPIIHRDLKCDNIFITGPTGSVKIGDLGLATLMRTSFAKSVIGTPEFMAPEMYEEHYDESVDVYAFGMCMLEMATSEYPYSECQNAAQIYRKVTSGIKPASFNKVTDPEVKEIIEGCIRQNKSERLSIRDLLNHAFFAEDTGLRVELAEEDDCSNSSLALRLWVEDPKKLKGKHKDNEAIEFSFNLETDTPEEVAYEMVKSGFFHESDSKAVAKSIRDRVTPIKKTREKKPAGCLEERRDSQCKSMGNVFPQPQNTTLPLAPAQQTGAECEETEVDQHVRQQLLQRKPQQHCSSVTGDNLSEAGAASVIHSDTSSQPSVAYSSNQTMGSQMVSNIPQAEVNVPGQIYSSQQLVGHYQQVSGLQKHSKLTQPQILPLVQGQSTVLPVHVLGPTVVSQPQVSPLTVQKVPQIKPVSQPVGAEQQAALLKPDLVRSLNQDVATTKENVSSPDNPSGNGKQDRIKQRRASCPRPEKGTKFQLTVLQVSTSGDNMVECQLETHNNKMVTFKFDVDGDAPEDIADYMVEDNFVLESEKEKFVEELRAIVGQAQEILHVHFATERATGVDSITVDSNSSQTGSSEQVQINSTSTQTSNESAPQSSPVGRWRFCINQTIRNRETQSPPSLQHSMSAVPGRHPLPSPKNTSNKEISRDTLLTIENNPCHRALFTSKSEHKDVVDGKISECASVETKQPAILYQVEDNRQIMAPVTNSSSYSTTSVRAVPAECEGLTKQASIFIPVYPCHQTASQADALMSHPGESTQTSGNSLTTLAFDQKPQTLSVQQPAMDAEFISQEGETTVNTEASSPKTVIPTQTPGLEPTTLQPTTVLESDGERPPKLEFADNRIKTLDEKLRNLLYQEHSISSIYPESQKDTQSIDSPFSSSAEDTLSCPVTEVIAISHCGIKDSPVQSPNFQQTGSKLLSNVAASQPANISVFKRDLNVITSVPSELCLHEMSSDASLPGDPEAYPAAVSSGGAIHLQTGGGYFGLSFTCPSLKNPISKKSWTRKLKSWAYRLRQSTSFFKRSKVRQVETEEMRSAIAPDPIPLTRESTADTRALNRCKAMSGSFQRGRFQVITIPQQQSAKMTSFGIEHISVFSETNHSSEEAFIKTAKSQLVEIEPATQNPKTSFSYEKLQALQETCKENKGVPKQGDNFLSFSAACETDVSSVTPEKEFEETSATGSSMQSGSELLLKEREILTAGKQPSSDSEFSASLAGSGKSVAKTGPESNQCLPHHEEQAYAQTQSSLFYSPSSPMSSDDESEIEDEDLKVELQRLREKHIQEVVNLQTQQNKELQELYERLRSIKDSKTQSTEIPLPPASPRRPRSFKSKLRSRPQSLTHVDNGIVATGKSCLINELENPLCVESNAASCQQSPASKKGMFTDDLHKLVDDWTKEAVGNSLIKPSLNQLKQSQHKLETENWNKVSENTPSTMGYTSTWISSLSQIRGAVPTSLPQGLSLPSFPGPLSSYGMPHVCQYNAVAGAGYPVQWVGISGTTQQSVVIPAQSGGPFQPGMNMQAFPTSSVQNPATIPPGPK
Chain of kinases (KINOMEscan panel) (Homo sapiens, UniProt P10721, V559D/V654A) (P10721 26-976 V559D/V654A): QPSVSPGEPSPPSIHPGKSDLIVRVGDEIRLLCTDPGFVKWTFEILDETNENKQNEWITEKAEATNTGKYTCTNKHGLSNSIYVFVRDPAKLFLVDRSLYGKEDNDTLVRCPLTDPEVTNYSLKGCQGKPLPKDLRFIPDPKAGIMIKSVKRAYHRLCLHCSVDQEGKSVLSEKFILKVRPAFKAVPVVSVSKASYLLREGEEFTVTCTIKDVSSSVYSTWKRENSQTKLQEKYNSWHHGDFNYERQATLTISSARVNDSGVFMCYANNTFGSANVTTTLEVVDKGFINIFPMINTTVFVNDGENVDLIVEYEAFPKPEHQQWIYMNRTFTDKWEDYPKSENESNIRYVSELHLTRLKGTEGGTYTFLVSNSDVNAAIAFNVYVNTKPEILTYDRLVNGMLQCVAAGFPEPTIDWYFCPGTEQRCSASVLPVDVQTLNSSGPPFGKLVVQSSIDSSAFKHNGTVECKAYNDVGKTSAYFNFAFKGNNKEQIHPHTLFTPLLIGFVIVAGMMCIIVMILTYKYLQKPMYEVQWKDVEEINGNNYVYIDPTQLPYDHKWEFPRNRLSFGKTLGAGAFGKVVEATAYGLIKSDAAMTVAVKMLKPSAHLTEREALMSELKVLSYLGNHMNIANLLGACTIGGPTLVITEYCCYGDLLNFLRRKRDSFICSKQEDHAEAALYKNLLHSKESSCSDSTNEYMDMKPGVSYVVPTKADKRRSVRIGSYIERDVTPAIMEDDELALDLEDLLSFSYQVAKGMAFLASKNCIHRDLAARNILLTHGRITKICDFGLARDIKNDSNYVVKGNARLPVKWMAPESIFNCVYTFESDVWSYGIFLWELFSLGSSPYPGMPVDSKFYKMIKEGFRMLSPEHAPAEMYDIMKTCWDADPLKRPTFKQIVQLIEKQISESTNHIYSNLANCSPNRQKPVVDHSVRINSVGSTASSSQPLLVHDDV
Chain of kinases (KINOMEscan panel) (Homo sapiens, UniProt Q9UBF8) (Q9UBF8 whole entry): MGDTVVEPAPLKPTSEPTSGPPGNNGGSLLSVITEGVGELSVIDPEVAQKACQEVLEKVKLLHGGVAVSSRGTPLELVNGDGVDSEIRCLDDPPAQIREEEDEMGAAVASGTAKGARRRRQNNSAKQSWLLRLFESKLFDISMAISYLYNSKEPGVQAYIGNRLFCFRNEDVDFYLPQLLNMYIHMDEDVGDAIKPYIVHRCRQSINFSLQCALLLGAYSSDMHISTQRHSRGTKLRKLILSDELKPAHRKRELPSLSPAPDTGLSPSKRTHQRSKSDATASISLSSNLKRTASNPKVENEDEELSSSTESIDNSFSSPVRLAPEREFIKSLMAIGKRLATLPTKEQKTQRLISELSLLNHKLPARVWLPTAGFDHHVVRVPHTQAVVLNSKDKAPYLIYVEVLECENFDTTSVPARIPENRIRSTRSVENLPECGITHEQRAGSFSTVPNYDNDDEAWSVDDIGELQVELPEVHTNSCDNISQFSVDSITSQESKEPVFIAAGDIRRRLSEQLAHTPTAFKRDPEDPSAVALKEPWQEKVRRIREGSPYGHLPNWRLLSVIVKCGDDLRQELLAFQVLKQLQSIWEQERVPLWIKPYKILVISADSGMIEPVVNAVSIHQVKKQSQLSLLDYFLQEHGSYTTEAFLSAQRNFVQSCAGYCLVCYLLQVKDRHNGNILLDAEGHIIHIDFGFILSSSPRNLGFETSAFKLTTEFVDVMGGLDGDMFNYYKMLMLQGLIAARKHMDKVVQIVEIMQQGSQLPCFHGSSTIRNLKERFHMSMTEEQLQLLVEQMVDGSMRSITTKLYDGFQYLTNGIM

Row | SMILES | KINOMEscan CDKL5 [1] | KINOMEscan PI4KB [2] | KINOMEscan MAPK12/p38-gamma [3] | KINOMEscan WNK3 [4] | KINOMEscan KIT(V559D,V654A) [5] | KINOMEscan PLK4 [6]
1 | Cc1cccc(-c2nc(Nc3ccc4nn(C)cc4c3)c3ccccc3n2)n1 [NK167] | 0 | 0 | 43 | 0 | 15 | 0
2 | Cc1cccc(-c2nc(N(C)c3ccc4ncsc4c3)c3ccccc3n2)n1 [NK-161] | 3 | 0 | 27 | 28 | 4 | 3
